From publication PMC9221851, “A Fluorescence-Based Competitive Antibody Binding Assay for Kynurenine, a Potential Biomarker of Kidney Transplant Failure” (Diagnostics, 2022) come the findings set out here.

The structures appear in SMILES notation.

In experiment [1] the target is T1, anti-kynurenine antibody (monoclonal Mouse IgG1a k chain, clone 3D4-F2).
T1 construct: biotinylated whole antibody on streptavidin magnetic beads
The experiment in a line: magnetic bead immunoassay, fluorescence of unbound conjugate in supernatant. The experiment is classed as binding.

For experiment [2] the target is unchanged. The experiment in a line: competitive magnetic bead immunoassay, displacement of fluorescent conjugate […] in PBS. The experiment is classed as binding.

Usually Kd stands for the constant that tells how readily two partners part at equilibrium. Higher therefore signals weaker binding. In the case of `CCN(CC)c1ccc2c(-c3ccccc3C(=O)OCc3cn(CCOCCOCCOCCNC(=O)[C@@H](N)CC(=O)c4ccccc4N)nn3)c3ccc(N(CC)CC)cc3[o+]c2c1` [compound 5, L-Kyn-4EG-RhB], binding in experiment [1] was put at a Kd of 5.9 µM.
As a reminder, the IC50 is the concentration that gives 50% inhibition. Lower therefore signals higher potency. The compound `Nc1ccccc1C(=O)C[C@H](N)C(=O)O` [L-kynurenine] came in with an IC50 in experiment [2] of 4 µM.
